Measured values reported in ChEMBL document CHEMBL4011597, “Synthesis, screening and docking of fused pyrano[3,2-d]pyrimidine derivatives as xanthine oxidase inhibitor” (Eur J Med Chem, 2017).

Assays:
[1] = target: T1, Xanthine dehydrogenase/oxidase (Bos taurus, UniProt P80457); experiment: Inhibition of bovine xanthine oxidase assessed as reduction in uric acid formation using xanthine as substrate pretreated for 5 mins followed by substrate addition measured by UV-vis spectrophotometric method
[2] = target: T1, Xanthine dehydrogenase/oxidase; experiment: Inhibition of bovine xanthine oxidase assessed as reduction in uric acid formation at 1 uM using xanthine as substrate pretreated for 5 mins followed by substrate addition measured by UV-vis spectrophotometric method relative to control; details: cattle
[3] = target: T1, Xanthine dehydrogenase/oxidase; experiment: Inhibition of bovine xanthine oxidase assessed as reduction in uric acid formation at 10 uM using xanthine as substrate pretreated for 5 mins followed by substrate addition measured by UV-vis spectrophotometric method relative to control; details: cattle
[4] = target: T1, Xanthine dehydrogenase/oxidase; experiment: Inhibition of bovine xanthine oxidase assessed as reduction in uric acid formation at 100 uM using xanthine as substrate pretreated for 5 mins followed by substrate addition measured by UV-vis spectrophotometric method relative to control; details: cattle

T1 sequence (P80457 whole entry): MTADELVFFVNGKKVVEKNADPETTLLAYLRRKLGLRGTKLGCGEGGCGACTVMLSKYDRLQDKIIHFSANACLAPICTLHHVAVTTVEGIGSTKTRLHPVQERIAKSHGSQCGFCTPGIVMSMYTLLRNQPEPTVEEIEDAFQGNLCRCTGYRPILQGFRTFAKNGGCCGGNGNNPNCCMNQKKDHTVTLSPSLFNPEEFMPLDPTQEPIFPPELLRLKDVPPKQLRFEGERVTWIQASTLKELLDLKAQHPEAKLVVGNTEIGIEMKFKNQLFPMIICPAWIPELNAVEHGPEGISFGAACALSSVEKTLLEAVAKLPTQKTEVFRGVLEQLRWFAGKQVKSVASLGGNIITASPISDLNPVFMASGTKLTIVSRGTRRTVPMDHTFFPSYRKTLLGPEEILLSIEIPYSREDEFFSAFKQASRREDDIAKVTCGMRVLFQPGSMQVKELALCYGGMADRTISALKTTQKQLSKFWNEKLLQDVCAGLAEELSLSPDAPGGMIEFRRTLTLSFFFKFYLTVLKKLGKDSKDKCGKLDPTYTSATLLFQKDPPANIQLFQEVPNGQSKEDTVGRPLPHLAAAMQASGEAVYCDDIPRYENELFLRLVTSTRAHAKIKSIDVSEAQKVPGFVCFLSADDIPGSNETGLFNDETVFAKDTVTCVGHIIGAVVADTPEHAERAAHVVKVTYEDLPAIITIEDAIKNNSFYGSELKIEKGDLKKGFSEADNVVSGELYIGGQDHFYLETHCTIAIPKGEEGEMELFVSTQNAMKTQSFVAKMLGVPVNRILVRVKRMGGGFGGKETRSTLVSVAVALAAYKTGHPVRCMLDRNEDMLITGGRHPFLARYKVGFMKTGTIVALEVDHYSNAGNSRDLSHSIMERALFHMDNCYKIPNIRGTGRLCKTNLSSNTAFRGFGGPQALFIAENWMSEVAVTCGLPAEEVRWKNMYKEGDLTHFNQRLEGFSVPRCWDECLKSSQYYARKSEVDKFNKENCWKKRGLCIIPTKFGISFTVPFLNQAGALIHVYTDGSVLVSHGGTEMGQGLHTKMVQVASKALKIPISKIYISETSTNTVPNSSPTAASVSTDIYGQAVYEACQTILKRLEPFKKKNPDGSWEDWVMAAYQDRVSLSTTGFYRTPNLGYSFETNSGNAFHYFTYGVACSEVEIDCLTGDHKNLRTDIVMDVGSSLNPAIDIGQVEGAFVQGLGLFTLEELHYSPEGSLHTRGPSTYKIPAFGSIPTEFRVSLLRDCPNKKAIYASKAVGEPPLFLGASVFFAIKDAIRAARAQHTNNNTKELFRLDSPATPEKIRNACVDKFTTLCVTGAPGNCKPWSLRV

Structure (SMILES)	IC50 [1]	inhibition at 1 µM [2]	inhibition at 10 µM [3]	inhibition at 100 µM [4]
COc1ccc(Nc2ncnc3c2C(c2ccc(Cl)cc2)C2=C(CCCC2=O)O3)cc1 (stereo not given)	55 µM	22%	34.5%	69.4%
COc1ccc(Nc2ncnc3c2C(c2ccccc2OC)C2=C(CCCC2=O)O3)cc1 (stereo not given)	24 µM	34.8%	43.2%	86.5%
COc1ccc(Nc2ncnc3c2C(c2ccc(O)c(OC)c2)C2=C(CCCC2=O)O3)cc1 (stereo not given)	7 µM	30.3%	60%	95%
COc1ccc(Nc2ncnc3c2C(c2ccc(O)c(O)c2)C2=C(CCCC2=O)O3)cc1 (stereo not given)	8.5 µM	27.3%	56.5%	93.8%
COc1ccc(Nc2ncnc3c2C(c2cccc([N+](=O)[O-])c2)C2=C(CCCC2=O)O3)cc1 (stereo not given)	60 µM	21.9%	32.7%	64.2%
COc1ccc(Nc2ncnc3c2C(c2ccccc2)C2=C(CCCC2=O)O3)cc1 (stereo not given)	40 µM	29.1%	37.5%	75.4%
COc1ccc(Nc2ncnc3c2C(c2cccc(Cl)c2)C2=C(CCCC2=O)O3)cc1 (stereo not given)	52 µM	29.2%	34.6%	70.2%
COc1ccc(Nc2ncnc3c2C(c2ccc(OC)c(OC)c2)C2=C(CCCC2=O)O3)cc1 (stereo not given)	8 µM	29.3%	57.5%	94.2%
COc1ccc(Nc2ncnc3c2C(c2ccc([N+](=O)[O-])cc2)c2c(c(=O)oc4ccccc24)O3)cc1 (stereo not given)	64 µM	22.2%	30.5%	61.9%
COc1ccc(Nc2ncnc3c2C(c2cccc(O)c2)C2=C(CCCC2=O)O3)cc1 (stereo not given)	30 µM	29.4%	41.2%	82.3%
COc1ccc(Nc2ncnc3c2C(c2ccc(Br)cc2)C2=C(CCCC2=O)O3)cc1 (stereo not given)	58 µM	23.1%	33.5%	67%
COc1ccc(Nc2ncnc3c2C(c2cc(OC)c(OC)c(OC)c2)C2=C(CCCC2=O)O3)cc1 (stereo not given)	40 µM	27.4%	38%	76.8%
COc1ccc(Nc2ncnc3c2C(c2ccc(F)cc2)C2=C(CCCC2=O)O3)cc1 (stereo not given)	50 µM	27.1%	35.5%	71.1%

Continued by falling IC50 [1], values first:

IC50 [1]	inhibition at 1 µM [2]	inhibition at 10 µM [3]	inhibition at 100 µM [4]	Structure (SMILES)
68 µM	23.5%	31.6%	60.6%	COc1ccc(Nc2ncnc3c2C(c2ccc(O)c(O)c2)c2c(n[nH]c2C)O3)cc1 (stereo not given)
67 µM	20%	31.5%	63.5%	COc1ccc(Nc2ncnc3c2C(c2ccc([N+](=O)[O-])cc2)C2=C(CCCC2=O)O3)cc1 (stereo not given)
65 µM	20.2%	31.5%	63.6%	COc1ccc(Nc2ncnc3c2C(c2cccc([N+](=O)[O-])c2)c2c(c(=O)oc4ccccc24)O3)cc1 (stereo not given)
64 µM	23.6%	31.4%	63.7%	COc1ccc(Nc2ncnc3c2C(c2ccc(OC)c(OC)c2)c2c(n[nH]c2C)O3)cc1 (stereo not given)
35 µM	31%	40.2%	80.5%	COc1ccc(Nc2ncnc3c2C(c2cccc(C)c2)C2=C(CCCC2=O)O3)cc1 (stereo not given)
28 µM	30.5%	42.4%	84.8%	COc1ccc(Nc2ncnc3c2C(c2ccc(O)cc2)C2=C(CCCC2=O)O3)cc1 (stereo not given)
25 µM	32.3%	43.5%	87.4%	COc1ccc(Nc2ncnc3c2C(c2ccc(OC)cc2)C2=C(CCCC2=O)O3)cc1 (stereo not given)
